Source: patent publication US9322066B2, “Predictors for cancer treatment” (priority 2011, dated 2016)

System: relapsed or refractory, rituximab-naive or -sensitive follicular B-cell NHL
Experiment: Time to progression (TTP), Vc-R vs rituximab study, by biomarker
Assay type: in vivo, human
Set-up: TTP Median: unit not given here
From the text: Non-Hodgkin lymphoma (NHL) encompasses several unique malignant lymphoid disease entities that vary in clinical behavior, morphologic appearance, immunologic, and molecular phenotype. […] A randomized, open-label, active-controlled, multicenter, multinational, prospective study to compare the efficacy and safety of the combination of bortezomib and rituximab (Vc-R) to single-agent rituximab in subjects who have relapsed or refractory, rituximab-naive or -sensitive follicular B-cell NHL was performed.
Subjects were centrally randomized to Treatment Groups A (Vc-R) or B (rituximab) in a 1:1 ratio taking into account the following stratification factors: • Follicular Lymphoma International Prognostic Index (FLIPI) score (low [0 or 1 factor], intermediate [2 factors], high [≧3 factors]); • Prior rituximab therapy (yes, no); • Time since last dose of anti-lymphoma therapy (≦1 year, >1 year); • Region (United States/Canada, European Union, Rest of World).
For single-marker association analyses and pair-wise comparisons, a log rank test and Cox proportional hazard model was utilized for assessments of PFS, TTP, and OS between the treatment groups. Kaplan-Meier curves were utilized to estimate the distribution differences between groups in the time-to-event analyses. Comparison of the response rates between the treatment groups was conducted using the Fishers exact test. Single-marker association analyses were stratified by the covariates.
For pair-wise comparison analysis, biomarker pairs were formed by combinations of two markers. A log rank test was utilized for assessments of PFS, TTP, and OS between the treatment groups in the subpopulation defined by biomarker pairs. Kaplan-Meier curves were utilized to estimate the distribution differences between groups in the time-to-event analyses. Comparison of the response rates between the treatment groups was conducted using the Fishers exact test. Methods of Analysis for the multiple biomarker comparison models can be found in section 4.6.

[1] = 20S % NUCLEAR STAINING: 30-50, 2 Prior Lines of Therapy
[2] = 20S % NUCLEAR STAINING: 60-70, Male
[3] = 20S % POSITIVE CYTOPLASMIC SIGNAL: 0-20, >65 years old
[4] = 20S % POSITIVE CYTOPLASMIC SIGNAL: 95-100, Ann Arbor Stage IV
[5] = 20S INTENSITY CYTOPLASMIC SIGNAL: ≧3+, Male
[6] = CD68 OVERALL POSITIVE: 0-25, 2 Prior Lines of Therapy
[7] = CD68 OVERALL POSITIVE: 0-25, ≦1 year since last anti-lymphoma treatment
[8] = CD68 OVERALL POSITIVE: 26-50, Ann Arbor Stage IV
[9] = CD68 OVERALL POSITIVE: 26-50, High FLIPI Score
[10] = CD68 OVERALL POSITIVE: 26-50, No High Tumor Burden
[11] = CD68 OVERALL POSITIVE: 26-50, Rest of World
[12] = CD68 OVERALL POSITIVE: 26-50, ≦65 years old
[13] = CD68 POSITIVE FOLLICULAR: 0-25, >1 year since last anti-lymphoma treatment
[14] = CD68 POSITIVE FOLLICULAR: 26-50, 1 Prior Line of Therapy
[15] = CD68 POSITIVE FOLLICULAR: 26-50, High FLIPI Score
[16] = CD68 POSITIVE FOLLICULAR: 26-50, No High Tumor Burden
[17] = CD68 POSITIVE FOLLICULAR: 26-50, No Subgroup
[18] = CD68 POSITIVE FOLLICULAR: 26-50, White
[19] = CD68 POSITIVE FOLLICULAR: 26-50, ≦65 years old
[20] = CD68 POSITIVE FOLLICULAR: 51-75, Female
[21] = CD68 POSITIVE PERIFOLLICULAR: 0-25, 2 Prior Lines of Therapy
[22] = CD68 POSITIVE PERIFOLLICULAR: 26-50, Male
[23] = CD68 POSITIVE PERIFOLLICULAR: 26-50, Other
[24] = CD68 POSITIVE PERIFOLLICULAR: >75, 1 Prior Line of Therapy
[25] = CD68 POSITIVE PERIFOLLICULAR: >75, ≦65 years old
[26] = P27 % NUCLEI POSITIVE: 30-50, Ann Arbor Stage IV
[27] = P27 % NUCLEI POSITIVE: 60-70, Intermediate FLIPI Score
[28] = P27 SIGNAL INTENSITY: ≧2+, 4 Prior Lines of Therapy
[29] = P27 SIGNAL INTENSITY: ≧2+, Ann Arbor Stage IV
[30] = P27 SIGNAL INTENSITY: ≧2+, Male
[31] = P27 SIGNAL INTENSITY: ≧2+, ≦65 years old
[32] = P65 % NUCLEAR STAINING: 0, Male
[33] = P65 % NUCLEAR STAINING: 0, No Prior Rituximab Therapy
[34] = P65 % NUCLEAR STAINING: 0, ≦65 years old
[35] = P65 % POSITIVE CYTOPLASMIC SIGNAL: >90%, 1 Prior Line of Therapy
[36] = P65 % POSITIVE CYTOPLASMIC SIGNAL: >90%, >1 year since last anti-lymphoma treatment
[37] = P65 % POSITIVE CYTOPLASMIC SIGNAL: >90%, Ann Arbor Stage IV
[38] = P65 % POSITIVE CYTOPLASMIC SIGNAL: >90%, High FLIPI Score
[39] = P65 % POSITIVE CYTOPLASMIC SIGNAL: >90%, Male
[40] = P65 % POSITIVE CYTOPLASMIC SIGNAL: >90%, No Prior Rituximab Therapy
[41] = P65 % POSITIVE CYTOPLASMIC SIGNAL: >90%, No Subgroup
[42] = P65 % POSITIVE CYTOPLASMIC SIGNAL: >90%, White
[43] = P65 % POSITIVE CYTOPLASMIC SIGNAL: >90%, ≦65 years old
[44] = P65 % POSITIVE CYTOPLASMIC SIGNAL: ≦90%, Intermediate FLIPI Score
[45] = P65 INTENSITY CYTOPLASMIC SIGNAL: ≦1+, Ann Arbor Stage III
[46] = P65 INTENSITY CYTOPLASMIC SIGNAL: ≧2+, High FLIPI Score
[47] = P65 INTENSITY CYTOPLASMIC SIGNAL: ≧2+, ≦65 years old
[48] = PSMB1/A171S: G/G, Ann Arbor Stage IV, IRC review
[49] = PSMB1/A171S: G/G, High Tumor Burden, IRC review

In the case of rituximab, the “TTP Evt/N” value [1] is reported as 11/13, the “TTP Median” value [1] is reported as 239 and the “TTP Evt/N” value [2] is reported as 13/16. The “TTP Median” value [2] was 212, the “TTP Evt/N” value [3] was 5/6 and the “TTP Median” value [3] was 278. For the same substance, the “TTP Evt/N” value [4] was 43/56, the “TTP Median” value [4] was 278 and the “TTP Evt/N” value [5] was 20/27. For the same substance, the “TTP Median” value [5] was 280, the “TTP Evt/N” value [6] was 6/8 and the “TTP Median” value [6] was 142. For the same substance, the “TTP Evt/N” value [7] was 11/18, the “TTP Median” value [7] was 424 and the “TTP Evt/N” value [8] was 44/56. The “TTP Median” value [8] was 277, the “TTP Evt/N” value [9] was 36/45 and the “TTP Median” value [9] was 277. For the same substance, the “TTP Evt/N” value [10] was 37/54, the “TTP Median” value [10] was 357 and the “TTP Evt/N” value [11] was 40/51. For the same substance, the “TTP Median” value [11] was 277, the “TTP Evt/N” value [12] was 57/77 and the “TTP Median” value [12] was 278. The “TTP Evt/N” value [13] was 23/34, the “TTP Median” value [13] was 357 and the “TTP Evt/N” value [14] was 26/39. For the same substance, the “TTP Median” value [14] was 349, the “TTP Evt/N” value [15] was 31/37 and the “TTP Median” value [15] was 205. For the same substance, the “TTP Evt/N” value [16] was 29/44, the “TTP Median” value [16] was 351 and the “TTP Evt/N” value [17] was 65/91. For the same substance, the “TTP Median” value [17] was 277, the “TTP Evt/N” value [18] was 53/77 and the “TTP Median” value [18] was 334. For the same substance, the “TTP Evt/N” value [19] was 52/67, the “TTP Median” value [19] was 270 and the “TTP Evt/N” value (CD68 POSITIVE FOLLICULAR: 51-75, 3 Prior Lines of Therapy) was 1/4. The “TTP Evt/N” value [20] was 14/26, the “TTP Median” value [20] was 708 and the “TTP Evt/N” value [21] was 7/8. The “TTP Median” value [21] was 70, the “TTP Evt/N” value [22] was 22/30 and the “TTP Median” value [22] was 239. For the same substance, the “TTP Evt/N” value [23] was 4/4, the “TTP Median” value [23] was 128 and the “TTP Evt/N” value [24] was 13/18. The “TTP Median” value [24] was 275, the “TTP Evt/N” value [25] was 17/23 and the “TTP Median” value [25] was 275. The “TTP Evt/N” value [26] was 15/19, the “TTP Median” value [26] was 278 and the “TTP Evt/N” value [27] was 6/13. For the same substance, the “TTP Median” value [27] was 513, the “TTP Evt/N” value [28] was 9/15 and the “TTP Median” value [28] was 348. For the same substance, the “TTP Evt/N” value [29] was 64/85, the “TTP Median” value [29] was 283 and the “TTP Evt/N” value [30] was 52/72. The “TTP Median” value [30] was 280, the “TTP Evt/N” value [31] was 104/153 and the “TTP Median” value [31] was 281. The “TTP Evt/N” value [32] was 56/74, the “TTP Median” value [32] was 280 and the “TTP Evt/N” value [33] was 77/102. For the same substance, the “TTP Median” value [33] was 322, the “TTP Evt/N” value [34] was 97/138 and the “TTP Median” value [34] was 287. For the same substance, the “TTP Evt/N” value [35] was 56/89, the “TTP Median” value [35] was 349 and the “TTP Evt/N” value [36] was 77/117. For the same substance, the “TTP Median” value [36] was 357, the “TTP Evt/N” value [37] was 67/87 and the “TTP Median” value [37] was 275. For the same substance, the “TTP Evt/N” value [38] was 61/83, the “TTP Median” value [38] was 239 and the “TTP Evt/N” value [39] was 54/72. For the same substance, the “TTP Median” value [39] was 271, the “TTP Evt/N” value [40] was 80/112 and the “TTP Median” value [40] was 345. For the same substance, the “TTP Evt/N” value [41] was 139/204, the “TTP Median” value [41] was 334 and the “TTP Evt/N” value [42] was 119/179. The “TTP Median” value [42] was 345, the “TTP Evt/N” value [43] was 108/154 and the “TTP Median” value [43] was 278. For the same substance, the “TTP Evt/N” value [44] was 5/16, the “TTP Median” value [44] was 567 and the “TTP Evt/N” value [45] was 7/11. For the same substance, the “TTP Median” value [45] was 204, the “TTP Evt/N” value [46] was 60/80 and the “TTP Median” value [46] was 275. The “TTP Evt/N” value [47] was 105/152, the “TTP Median” value [47] was 287 and the “TTP Evt/N” value [48] was 95/127. For the same substance, the “TTP Median” value [48] was 278, the “TTP Evt/N” value [49] was 110/147 and the “TTP Median” value [49] was 273. For the same substance, the “TTP Evt/N” value (PSMB1/A171S: G/G, ≦65 years old, IRC review) was 131/198.
